# Reference: patent US7989630B2, “Radiotracers for imaging P-glycoprotein function” (National Institutes of Health Represented by the Secretary …, priority 2008, dated 2011)
# Where a name gives a salt, the structure may show the parent alone.
# Tests used:
# [1] = Plasma analysis of [^11C]loperamide in nonhuman primates (arterial plasma, radio-HPLC); settings: for time at which parent radiotracer was 50% of total plasma activity: monkey arterial plasma
# From the text: (§1) For tariquidar only a blockade scan was acquired and compared to the baseline scans of three other animals.
# P-gp [2] = test: PET imaging of [^11C]loperamide in monkey brain with P-gp inhibitors; settings: for increase of brain activity after [^11C]loperamide: monkey; for increase of peak radioactivity in brain after [^11C]loperamide: inhibitor 8.0 mg/kg i.v. 30 min before radiotracer, monkey (FIG. 3)
# Description: as §1
# PET images were co-registered to a magnetic resonance image template of a monkey brain. Tomographic images were analyzed with PMOD 2.7 (pixel-wise modeling computer software; PMOD Group, Adliswil, Switzerland). Regions of interest were drawn on coronal slices. Decay-corrected radioactivity was expressed as % standardized uptake value (% SUV), which normalizes for injected activity and body weight. % SUV=(% injected activity per cm3 brain)×(g body weight).
# [3] = Plasma free fraction (fP) by ultracentrifugation; format: in vitro ADME; settings: fP of [^11C]loperamide, monkey
# P-gp [4] = settings: Ekins et al. 2002 (DCPQ); Martin et al. 1999 (tariquidar); cited from earlier work
# P-gp [5] = settings: DCPQ 16 mg/kg i.v., monkeys
# Description: The brains of three P-gp KO and three WT mice were scanned for 90 min after administration of [^11C]dLop (˜580 μCi, i.v.). Mice injected with [^11C]dLop (600 μCi, i.v.) were also sacrificed at 30 min, and acetonitrile extracts of blood and brain analyzed with reverse phase HPLC.
# P-gp [6] = test: PET imaging of [^11C]dLop in monkey brain, baseline and P-gp blocked with DCPQ; settings: for increase of regional radioactivity concentration relative to baseline: DCPQ 16 mg/kg i.v. before [^11C]dLop, averaged 25-50 min
# Description: Scatter and attenuation correction were applied. Images were analyzed with PMOD. Regions of interest were drawn on coronal slices for eight brain regions (frontal cortex, anterior cingulate, temporal cortex, parietal cortex, hippocampus, occipital cortex, putamen and cerebellum). Activity was decay-corrected to the time of injection and expressed as % SUV. […]
# Time-radioactivity data were collected for the same eight brain regions as previously described.
# P-gp [7] = test: P-gp function imaged with [^11C]dLop in monkeys, brain study; format: in vivo; settings: naloxone 5 mg/kg or loperamide 1 mg/kg at 30 min after [^11C]dLop, P-gp blocked monkeys
# Description: Displacement agents were given at 30 min after the radiotracer. A subset of monkeys also had arterial blood sampling (n=5) and [^15O]H2O PET scans (n=4) to measure the concentration of parent radiotracer in plasma and cerebral blood flow, respectively.
# P-gp [8] = settings: KO mice, 30 min after [^11C]loperamide i.v.
# From the text: (§2) The most lipophilic radiometabolite was identified by radio-HPLC co-elution as N-desmethylloperamide (dLop) (data not shown).
# [9] = Arterial plasma parent input function and plasma free fraction, [^11C]loperamide with tariquidar; format: in vivo; settings: monkey
# Description: Arterial plasma parent input function and plasma free fraction (fl) were determined in monkey.
# P-gp [10] = test: Monkey brain PET with [^11C]loperamide, baseline and tariquidar (additional experiments)
# P-gp [11] = settings: iv, 8 mg/kg
# P-gp [12] = system: P-gp
# Description: Serial dynamic images were acquired for 100 min, with frames of 6×20 s, 5×1 min, 4×2 min, 3×5 min, 3×10 min, and 2×20 min. […] The small mouse brain causes little scatter and attenuation of the gamma emissions from carbon-11, and, thus, no correction for scatter or attenuation was performed.
# P-gp [13] = settings: P-gp knockout mice, 30 min after injection of [^11C]loperamide
# Description: At 30 min after radiotracer injection, anticoagulated blood was removed by cardiac puncture, and the brain was harvested. Plasma was separated from whole blood by centrifugation at 1,800 g for 1 min. […] The homogenates were measured in the y-counter to calculate the % recovery of radioactivity into the acetonitrile extracts. The homogenates were then centrifuged at 10,000×g for 1 min. […] The eluate was monitored with an in-line flow-through Na(Tl) scintillation detector (Bioscan, Washington D.C., USA). Plasma parent and radiometabolite concentrations were calculated as the product of the radio-HPLC fraction of interest and the total plasma radioactivity concentration (dpm/mL).
# μ opiate receptor = μ opiate receptor (Homo sapiens, UniProt P35372); format: binding
# μ opiate receptor, sequence (P35372 whole entry): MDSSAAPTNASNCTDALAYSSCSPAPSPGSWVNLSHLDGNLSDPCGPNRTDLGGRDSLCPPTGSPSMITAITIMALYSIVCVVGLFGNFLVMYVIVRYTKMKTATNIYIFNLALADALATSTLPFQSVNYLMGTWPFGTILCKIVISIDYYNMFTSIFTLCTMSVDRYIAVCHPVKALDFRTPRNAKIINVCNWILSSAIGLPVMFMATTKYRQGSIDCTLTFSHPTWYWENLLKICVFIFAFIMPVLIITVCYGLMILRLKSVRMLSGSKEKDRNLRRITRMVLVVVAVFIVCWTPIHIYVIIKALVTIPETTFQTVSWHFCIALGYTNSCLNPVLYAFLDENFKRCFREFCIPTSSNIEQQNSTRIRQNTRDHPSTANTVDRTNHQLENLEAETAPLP
# From the text: (§3) Detailed binding protocols are available on the web site for The National Institute of Mental Health Psychoactive Drug Screening Program.
# δ opiate receptor = δ opiate receptor (Homo sapiens, UniProt P41143); test: In vitro receptor binding, cloned human δ opiate receptor
# δ opiate receptor, sequence (P41143 whole entry): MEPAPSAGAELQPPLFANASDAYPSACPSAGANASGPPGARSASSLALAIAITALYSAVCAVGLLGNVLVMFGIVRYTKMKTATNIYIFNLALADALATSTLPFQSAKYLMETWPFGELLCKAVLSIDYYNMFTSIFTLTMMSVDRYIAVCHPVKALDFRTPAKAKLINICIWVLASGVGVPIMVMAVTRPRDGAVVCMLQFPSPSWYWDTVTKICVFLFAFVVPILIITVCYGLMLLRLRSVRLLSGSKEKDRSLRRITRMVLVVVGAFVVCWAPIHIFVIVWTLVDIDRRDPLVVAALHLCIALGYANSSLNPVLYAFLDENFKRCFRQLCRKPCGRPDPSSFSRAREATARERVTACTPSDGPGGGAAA
# From the text: as §3
# P-gp [14] = molecular target: P-gp (Mus musculus, UniProt P21447); settings: 30 min after [^11C]loperamide i.v.
# P-gp (Mus musculus, UniProt P21447), sequence (P21447 whole entry): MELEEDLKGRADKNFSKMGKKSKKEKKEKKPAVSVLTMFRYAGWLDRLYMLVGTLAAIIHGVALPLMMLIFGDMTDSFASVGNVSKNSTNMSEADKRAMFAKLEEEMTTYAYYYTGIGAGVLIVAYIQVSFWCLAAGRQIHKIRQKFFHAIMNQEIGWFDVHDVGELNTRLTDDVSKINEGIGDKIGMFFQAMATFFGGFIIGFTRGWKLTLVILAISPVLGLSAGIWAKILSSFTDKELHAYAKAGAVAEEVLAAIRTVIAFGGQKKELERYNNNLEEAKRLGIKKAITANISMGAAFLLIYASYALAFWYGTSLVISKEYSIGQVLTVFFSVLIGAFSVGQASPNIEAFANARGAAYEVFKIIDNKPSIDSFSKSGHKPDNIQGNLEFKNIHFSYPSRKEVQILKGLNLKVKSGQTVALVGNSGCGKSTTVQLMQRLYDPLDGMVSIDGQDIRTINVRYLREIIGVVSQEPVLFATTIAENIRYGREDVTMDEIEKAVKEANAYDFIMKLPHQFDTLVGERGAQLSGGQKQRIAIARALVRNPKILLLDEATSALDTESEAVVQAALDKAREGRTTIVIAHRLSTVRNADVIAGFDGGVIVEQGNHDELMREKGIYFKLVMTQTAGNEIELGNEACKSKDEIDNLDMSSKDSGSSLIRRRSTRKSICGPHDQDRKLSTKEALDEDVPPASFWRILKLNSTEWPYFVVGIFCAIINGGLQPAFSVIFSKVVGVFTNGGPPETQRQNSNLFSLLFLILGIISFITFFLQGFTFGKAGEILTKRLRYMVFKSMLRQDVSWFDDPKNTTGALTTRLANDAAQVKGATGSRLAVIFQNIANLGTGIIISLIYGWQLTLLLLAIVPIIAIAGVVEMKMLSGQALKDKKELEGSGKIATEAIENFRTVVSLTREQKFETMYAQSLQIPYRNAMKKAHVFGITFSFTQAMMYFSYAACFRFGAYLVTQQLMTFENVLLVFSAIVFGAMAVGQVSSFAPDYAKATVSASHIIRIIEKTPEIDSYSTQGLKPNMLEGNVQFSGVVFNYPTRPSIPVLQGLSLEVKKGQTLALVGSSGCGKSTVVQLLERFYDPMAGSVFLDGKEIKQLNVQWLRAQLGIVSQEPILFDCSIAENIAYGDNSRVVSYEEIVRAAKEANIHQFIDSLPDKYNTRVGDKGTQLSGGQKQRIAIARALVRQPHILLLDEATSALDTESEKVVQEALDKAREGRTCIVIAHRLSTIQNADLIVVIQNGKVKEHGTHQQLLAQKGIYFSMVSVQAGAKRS
# From the text: as §2
# κ opiate receptor = κ opiate receptor (Homo sapiens, UniProt P41145); test: biochemical; settings: agonist radiotracer ^3H-U69,593; mean ± SD of four competitive binding experiments
# κ opiate receptor, sequence (P41145 whole entry): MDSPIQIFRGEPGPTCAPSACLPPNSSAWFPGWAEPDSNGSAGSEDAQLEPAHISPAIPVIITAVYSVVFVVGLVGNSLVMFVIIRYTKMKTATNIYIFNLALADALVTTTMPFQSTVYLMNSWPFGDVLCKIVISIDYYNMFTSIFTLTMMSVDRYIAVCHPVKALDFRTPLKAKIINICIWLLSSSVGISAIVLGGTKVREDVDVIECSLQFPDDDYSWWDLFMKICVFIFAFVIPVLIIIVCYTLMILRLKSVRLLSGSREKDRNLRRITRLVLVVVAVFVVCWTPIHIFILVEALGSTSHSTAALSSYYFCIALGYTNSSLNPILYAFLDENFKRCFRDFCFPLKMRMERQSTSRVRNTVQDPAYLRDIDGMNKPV
# From the text: as §3
# CYP3A4 = settings: mouse, in vivo
# Description: Ex vivo studies were performed in wild-type (WT) and P-gp knockout (KO) mice. […] Whole brain and plasma sample radioactivity were measured with γ-counting and HPLC analysis.
# [15] = inhibitor 8 mg/kg i.v. 30 min before radiotracer
compound,measurement,setting,value
"Cl.Cl.Cl.O[C@@H](COc1cccc2ncccc12)CN1CCN(C2c3ccccc3C3C(c4ccccc42)C3(Cl)Cl)CC1 (stereo partly drawn) [DCPQ, (2R)-anti-5-{3-[4-(10,11-dichloromethanodibenzosuber-5-yl)piperazin-1-yl]-2-hydroxypropoxy}quinoline trihydrochloride]",increase in plasma exposure of [^11C]loperamide,"[1]; DCPQ 8 mg/kg i.v. vs baseline, monkey",16%
same,increase of brain activity after [^11C]loperamide,P-gp [2]; inhibitor 1 mg/kg i.v. 30 min before radiotracer,minimal effect
same,increase of brain activity after [^11C]loperamide,P-gp [2]; inhibitor 3 mg/kg i.v. 30 min before radiotracer,~2.5 fold
same,increase of brain activity after [^11C]loperamide,P-gp [2]; [15],~3.5 fold
same,increase of peak radioactivity in brain after [^11C]loperamide,P-gp [2],3.7 fold
same,"Plasma free fraction (fP), P-gp Inhibition",[3]; inhibitor 1.0 mg/kg,5.7 ± 0.3
same,"Plasma free fraction (fP), P-gp Inhibition",[3]; inhibitor 3.0 mg/kg,1.4 ± 0.5
same,"Plasma free fraction (fP), P-gp Inhibition",[3]; inhibitor 8.0 mg/kg,4.4 ± 1.4
same,affinity to the P-gp,P-gp [4],5.3 nM
same,increase of brain radioactivity after [^11C]dLop,P-gp [5],more than 7 fold
same,dependence of regional brain radioactivity uptake on dose,"P-gp [6]; DCPQ 0-16 mg/kg i.v. before [^11C]dLop, one monkey",increased almost linearly with dose of DCPQ
same,ratio of maximal brain radioactivity to that in the baseline experiment,"P-gp [6]; DCPQ 8 mg/kg i.v. before [^11C]dLop, monkey",about five
same,effect on uptake of radioactivity into pituitary,"P-gp [6]; DCPQ 8 mg/kg or 16 mg/kg i.v. before [^11C]dLop, monkey",unaffected
same,increase of regional radioactivity concentration relative to baseline,"P-gp [6]; cerebellum, monkey",thirteen-fold
same,increase of regional radioactivity concentration relative to baseline,"P-gp [6]; frontal cortex, monkey",seven-fold
"CN(C)C(=O)C(CCN1CCC(O)(c2ccc(Cl)cc2)CC1)(c1ccccc1)c1ccccc1 [Loperamide, 4-(p-chlorophenyl)-4-hydroxy-N,N-dimethyl-α,α-diphenyl-1-piperidinebutyramide hydrochloride, reference compound]",displacement of the radiotracer from brain,P-gp [7],Neither naloxone nor loperamide caused any apparent displacement
same,Brain composition,P-gp [8],63%
COc1cc2c(cc1OC)CN(CCc1ccc(NC(=O)c3cc(OC)c(OC)cc3NC(=O)c3cnc4ccccc4c3)cc1)CC2 [Tariquidar],time over which parent plasma composition decreased to 50%,"[9]; rhesus, in vivo",20 min
same,increase of brain activity after [^11C]loperamide,P-gp [2]; [15],equipotent with DCPQ
same,increase of peak radioactivity in brain after [^11C]loperamide,P-gp [2],3.7 fold
same,increase of brain activity after [^11C]loperamide,"P-gp [2]; inhibitor 8 mg/kg i.v. 30 min before radiotracer, listed as tariquidar",~3.5 fold
same,increase of brain activity after [^11C]loperamide,P-gp [10]; tariquidar 8 mg/kg i.v.,about 3.7 fold
same,"Plasma free fraction (fP), Δ relative to baseline",[3]; inhibitor 8.0 mg/kg,negligibly affected
same,brain activity after P-gp inhibition,P-gp [11],146 % standard uptake value
same,affinity to the P-gp,P-gp [4],5.1 nM
"CN([11CH3])C(=O)C(CCN1CCC(O)(c2ccc(Cl)cc2)CC1)(c1ccccc1)c1ccccc1 [[^11C]loperamide, 4-(4-(4-chlorophenyl)-4-hydroxypiperidin-1-yl)-N,N-dimethyl-2,2-diphenylbutanamide]",time at which parent radiotracer was 50% of total plasma activity,[1]; after DCPQ 8 mg/kg i.v.,20 min
same,time at which parent radiotracer was 50% of total plasma activity,[1]; baseline,17 min
same,time at which parent radiotracer was 50% of total plasma activity,"[1]; baseline, listed as [^11C]Loperamide",about 20 min
same,time over which parent plasma composition decreased to 50%,[9]; baseline,17 min
same,brain uptake under baseline conditions,"P-gp [2]; three monkeys, 120 min scan",~40 % SUV
same,"maximal activity in cerebellum, knockout vs wild type mice (PET)",P-gp [12]; cerebellum,1.9 fold
same,"maximal activity in forebrain, knockout vs wild type mice (PET)",P-gp [12]; forebrain,2.7 fold
same,"brain activity, knockout vs wild type mice (PET)",P-gp [12]; whole brains,about three-fold
same,"brain activity, baseline",P-gp [10]; baseline,40 % standard uptake value
same,share of brain radioactivity after [^11C]loperamide,P-gp [13],~50%
"CNC(=O)C(CCN1CCC(O)(c2ccc(Cl)cc2)CC1)(c1ccccc1)c1ccccc1 [dLop, 4-(4-(4-Chlorophenyl)-4-hydroxypiperidin-1-yl)-2,2-diphenyl-N-methyl-butanamide]",Ki,μ opiate receptor,0.56 ± 0.05 nM
same,Ki,δ opiate receptor,328 ± 22 nM
same,Brain composition,P-gp [8],21%
same,Brain composition,P-gp [14]; WT mice,4.3%
same,concentration increase over control (KO vs WT),P-gp [14]; brain,59 fold
same,Ki,κ opiate receptor,73 ± 7 nM
same,effect on washout of radioactivity from brain regions,P-gp [6]; given 30 min after [^11C]dLop to DCPQ-treated monkey (naloxone 5 mg/kg i.v.; loperamide or dLop 1 mg/kg i.v.),no discernible effect
CC(=O)N1CCN(c2ccc(OCC3COC(Cn4ccnc4)(c4ccc(Cl)cc4Cl)O3)cc2)CC1 (stereo not shown) [ketoconazole],decrease of radiometabolite dLop in plasma,CYP3A4,~70%
same,increase of [^11C]dLop concentration in plasma,CYP3A4,~240%
same,increase of [^11C]loperamide concentration in plasma,CYP3A4,~100%
"C=CCN1CC[C@]23c4c5ccc(O)c4O[C@H]2C(=O)CC[C@@]3(O)[C@H]1C5 [naloxone, reference compound]",displacement of the radiotracer from brain,P-gp [7],Neither naloxone nor loperamide caused any apparent displacement
